According to patent US20260248918A1, “COMPOSITIONS AND METHODS OF SUPPRESSING AVERSIVENESS OF PHARMACEUTICALS AND INGESTIBLE MATERIALS” (Monell Chemical Senses Center, priority 2019, published 2026):
Entries after “also recorded” stand apart in the source; their conditions may differ. Read-outs that look alike come from different tables or passages of the source.

Experiments:
[1] = test system: hTBEC cells; experiment: hTBEC bioassay: antagonism of bitter-drug stimulation of human taste bud cells; format: cell-based; conditions: for IC50: Homo sapiens; for % maximum inhibition: at 50 μM antagonist
Method: FIGS. 12A and 12B show concentration-response curves or relationships (CRCs) for antagonism of TAF or piperaquine stimulation of hTBEC cells with an optimal concentration of each bitter-tasting medicine in vitro. Each inhibition curve was fitted to the data so as to calculate an IC50 or the concentration that inhibits 50% of the signal. A Hill slope was calculated, along with the % maximal inhibition and the concentration of antagonist, 6-methylflavone, (indicated by the ref ST069348) required to fully block the response in the assay. These metrics were slightly different for antagonism by 6 -methylflavone of TAF versus piperaquine. FIG. 12A is a graph showing the suppression of human taste bud cells (hTBEC) cells with 6-methylflavone added to 300 micromolar TAF stimulated cells. […] FIG. 12B is a graph showing the suppression of hTBEC cells with 6-methylflavone added to 100 micromolar Piperaquine stimulated cells. IC50 is 2.0 μM for 6-methylflavone antagonism of Piperaquine stimulation.
Using a primary hTBEC platform, a high throughput screening (HTS) was conducted with more than 2,000 small molecular weight purified phytochemicals and botanical extracts. The screen identified 40 antagonists that suppressed taste cell activation by target APIs. […] TAS2R1 is responsive to piperaquine and tenofovir. (See FIG. 4)

[2] = test system: human subjects; experiment: Human sensory testing (gLMS) of API bitterness with blocker, as pre-rinse or admixture; format: in vivo
Source text: Methods of evaluating the sensory properties of the API and admixtures with the blocker compounds of Formula A are adopted from Breslin PA, and Tharp CD, “Reduction of saltiness and bitterness after a chlorhexidine rinse,” Chem Senses. 2001 February; 26(2):105-16. More details are illustrated below.
Subjects participate in the study after providing informed consent. Gender of the subjects is balanced between male and female. The subjects are adults with ages ranging from 20 years old to 50 years old. […] The participants are asked to refrain from eating, drinking, or chewing gum for 1 hr prior to testing. Subjects are trained to use the General Labeled Magnitude Scale (gLMS) following standard published procedures. See. e.g., Breslin P A, and Tharp C D. “Reduction of saltiness and bitterness after a chlorhexidine rinse,” Chem Senses. 2001 February; 26(2): 105-16; Keast and Breslin, “Bitterness suppression with zinc sulfate and Na-cyclamate: a model of combined peripheral and central neural approaches to flavor modification.” Pharm Res. 2005 November; 22(11):1970-7. Epub 2005 Aug. 26; Green et al, “Evaluating the ‘Labeled Magnitude Scale’ for measuring sensations of taste and smell.” Chem Senses. 1996 June; 21(3):323-34; Barry G. Green, et al, “Derivation and evaluation of a semantic scale of oral sensation magnitude with apparent ratio properties,” Chemical Senses, Volume 18, Issue 6, 1 Dec. 1993, Pages 683-702; and Bartoshuk L M, “Comparing sensory experiences across individuals: recent psychophysical advances illuminate genetic variation in taste perception.” Chem Senses. 2000 August; 25(4):447-60.
The selected API (in racemic or L form as applicable) is diluted/dissolved in deionized (di) filtered water upon use into various concentrations. […] The API is prepared and dissolved in deionized filtered water or in […] 6-methylflavone to a final concentration. All solutions are stored on ice or at 4° C. to 8° C. and brought up to room temperature prior to testing.
The following testing protocol is performed. The tested solutions are provided to the subjects in random order. Subjects rinsed with di water at least four times over a 2-minute period prior to tasting each solution. The subjects are instructed to wear nose clips to eliminate olfactory input, pour the whole solution in their mouth for 3-5 seconds, and rate the perceived sensation (including bitterness, sourness, astringency, burning, stinging and nausea) intensity of the solution while it remained in the mouth, prior to expectorating. Taste intensity is recorded on a computerized gLMS, analyzed and plotted.

[3] = test system: Gamma-aminobutyric acid A receptor alpha; conditions: in vitro; cited from earlier work
[4] = test system: androgen receptor; conditions: human MDA-kb2 cells; cited from earlier work
[5] = molecular target: T1, TAS2R39 (Homo sapiens, UniProt P59534); experiment: Blocking of TAS2R39 activity (HEK/TAS2R39) stimulated by Piperaquine or Tenofovir; format: cell-based; parameters: expressed in transfected cells; host or cells: HEK; conditions: 0.1 mM blocker
T1 sequence (P59534 1-338): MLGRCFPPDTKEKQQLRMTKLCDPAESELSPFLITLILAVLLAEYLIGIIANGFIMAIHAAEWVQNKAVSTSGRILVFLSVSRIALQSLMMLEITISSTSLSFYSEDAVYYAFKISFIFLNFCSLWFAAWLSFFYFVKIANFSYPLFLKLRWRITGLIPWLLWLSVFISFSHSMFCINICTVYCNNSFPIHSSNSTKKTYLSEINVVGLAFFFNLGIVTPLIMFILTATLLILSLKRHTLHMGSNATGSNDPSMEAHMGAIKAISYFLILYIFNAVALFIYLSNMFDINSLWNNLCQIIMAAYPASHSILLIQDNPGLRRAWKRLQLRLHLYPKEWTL
Method: FIG. 5A is a bar graph showing that the blocker 6-methylflavone (indicated by the arrow number 2) blocks the activity of taste receptor TAS2R39 to Piperaquine. Other blockers are unidentified compounds identified by the numbers following the concentrations under the X axis. Five candidates from the HTS screen blocked the activity of TAS2R39 to Piperaquine.
FIG. 5B is a graph plotting the activity of taste receptor HEK/TAS2R39 in the presence of 0.5 mM Piperaquine (bold black line); the combination of 0.5 mM Piperaquine and 0.1 mM of 6-methylflavone (light gray line), and a control with 0.1 mM of the blocker 6-methylflavone (dotted line).
Other blockers are identified by the numbers following the concentrations under the X axis.
FIG. 7B is a graph plotting the activity of taste receptor TAS2R39 in the presence of 1 mM Tenofovir (bold black line); the combination of 1 mM Tenovir and 0.1 mM of 6-methylflavone (light gray line), and a control with 0.1 mM of the blocker 6-methylflavone (dotted line).

IC50 ([1]; hTBEC cells stimulated with 100 micromolar Piperaquine, FIG. 12B, read-out: IC50 for antagonism of Piperaquine stimulation): 2 µM
IC50 ([1]; hTBEC cells stimulated with 300 micromolar TAF, FIG. 12A, read-out: IC50 for antagonism of TAF stimulation): 7.7 µM
Compound: Cc1ccc2oc(-c3ccccc3)cc(=O)c2c1 [6-methylflavone]
% maximum inhibition ([1]; 100 micromolar Piperaquine stimulated hTBEC cells, FIG. 12B): > 95%
% maximum inhibition ([1]; 300 micromolar TAF stimulated hTBEC cells, FIG. 12A): > 95%
Hill slope ([1]; hTBEC cells stimulated with 100 micromolar Piperaquine, FIG. 12B): 1.992
Hill slope ([1]; hTBEC cells stimulated with 300 micromolar TAF, FIG. 12A): 2.18
Blocking the stimulation of hTBEC cells by bitter tasting drugs ([1]; stimulated by TAF, racemic praziquantel and piperaquine): quite potent and effective
Blocking the bitter taste of piperaquine and TAF ([2]; admixture, subset of human subjects): effective antagonist
Suppression of TAF bitterness ([2]; another subject, FIGS. 11A/11B, 0.5 mg/mL TAF, pre-rinse then admixture, blocker 100 μM): worked
Suppression of TAF bitterness ([2]; another subject, FIGS. 11A/11B, 0.5 mg/mL TAF, pre-rinse then admixture, blocker 1 mM): worked even better
Suppression of TAF bitterness ([2]; one subject, FIGS. 8A/8B, 0.5 mg/mL TAF with and without 100 μM blocker): significant suppression
Suppression of TAF bitterness ([2]; one subject, FIGS. 9A/9B, 0.5 mg/mL TAF alone vs pre-rinse vs pre-rinse containing 100 μM blocker): did not show significant suppression
Suppression of TAF bitterness ([2]; one subject, FIGS. 10A/10B, 0.5 mg/mL TAF, pre-rinse then admixture, blocker 100 μM): no bitterness suppression
Average perceived bitterness intensity of piperaquine ([2]; piperaquine 8 mg/mL treated with 100 μM blocker, FIG. 6): affected
Blocking effect for TAF and piperaquine with added pre-rinse ([2]; pre-rinse with the blocker added, compared with admixture alone): stronger
Inhibition of [3H]-Ro-15-1788 binding [3]: has the ability to inhibit
Agonist activity at androgen receptor, stimulation of luciferase activity [4]: agonist activity
Inhibition of TAS2R39 activity to Piperaquine ([5]; 0.5 mM Piperaquine, FIG. 5A/5B): powerful antagonist; also recorded: strong inhibition
Inhibition of TAS2R39 activity in response to Tenofovir (TAF) ([5]; 1 mM Tenofovir, FIG. 7A/7B): powerful antagonist; also recorded: completely inhibited
